Starred links: 1 amine or outer side, 2 acyl side, 3 side chain; linkers in the order of their positions; H or OH if unused. Positions of bridges follow the written chain, without caps; N, C: chain ends. Non-standard residues stand in square brackets, D forms with d. Residues, ends and D or L forms follow the SMILES beside them. *: point of attachment. hPhe(3-Cl-4-CF3) = N[C@@H](CCc1ccc(C(F)(F)F)c(Cl)c1)C(=O)O; NMeTyr(3-F) = CN[C@@H](Cc1ccc(O)c(F)c1)C(=O)O; NEtPhe(2-Cl) = CCN[C@@H](Cc1ccccc1Cl)C(=O)O; NMedβ3hAla = C[C@H](CC(=O)[*:2])N(C)[*:1]; NMeAla(cPent) = CN[C@@H](CC1CCCC1)C(=O)O; NMeGly(cPent) = CN[C@H](C(=O)O)C1CCCC1; NMeCha = CN[C@@H](CC1CCCCC1)C(=O)O; NMeChg = CN[C@H](C(=O)O)C1CCCCC1; NMeI = CC[C@H](C)[C@H](NC)C(=O)O; NMeE = CN[C@@H](CCC(=O)O)C(=O)O; NMeD = CN[C@@H](CC(=O)O)C(=O)O; NMeL = CN[C@@H](CC(C)C)C(=O)O; NMeV = CN[C@H](C(=O)O)C(C)C; NMeAbu = CC[C@H](NC)C(=O)O; Morpholide = C1CN(*)CCO1; NMeA = CN[C@@H](C)C(=O)O; NMeAib = CNC(C)(C)C(=O)O; Piperidide = C1CCN(*)CC1; Pyrrolidide = C1CCN(*)C1; Ac5c = NC1(C(=O)O)CCCC1; Aze = O=C(O)[C@@H]1CCN1; Sar = CNCC(=O)O
biological target: T1, Kras and SOS1 (biotin-tagged human Kras loaded with GDP, His-tagged human SOS1) (Homo sapiens, UniProt P01116, G12D); experiment: Protein-protein interaction inhibition between Kras and SOS1 (KrasGl2D-SOS PPI) using AlphaScreen; assay type: binding; details: AlphaScreen; biotin-tagged human Kras loaded with GDP, His-tagged human SOS1; read-out: KRAS G12D-SOS PPI IC50
T1 construct: made in house; host or cells: E. coli (stated for Kras only)
Method in brief: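 Binding between SOS1 and Kras is detected as bead-proximity luminescence: illuminate Ni-conjugated donors (680 nm), collect 520-620 nm emission from streptavidin-conjugated acceptors; Kras carries biotin and GDP loaded after purification, SOS1 carries a His tag.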

T1 sequence (P01116 1-188 isoform P01116-2 G12D): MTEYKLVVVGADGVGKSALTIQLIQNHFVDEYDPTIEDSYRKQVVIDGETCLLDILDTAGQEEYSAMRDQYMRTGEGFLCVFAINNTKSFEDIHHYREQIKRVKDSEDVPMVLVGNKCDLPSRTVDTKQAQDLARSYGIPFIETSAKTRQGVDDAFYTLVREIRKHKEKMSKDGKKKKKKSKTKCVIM

SMILES	IC50 [nM]
CC[C@H](C)[C@@H]1NC(=O)[C@H](CC(C)C)N(C)C(=O)C[C@@H](C(=O)N2CCOCC2)N(C)C(=O)[C@H](C2CCCC2)N(C)C(=O)C2(CCCC2)NC(=O)[C@H](CCC(=O)NC)N(C)C(=O)[C@H](CCc2ccc(C(F)(F)F)c(Cl)c2)NC(=O)CN(C)C(=O)[C@H](CC2CCCCC2)N(C)C(=O)[C@@H]2CCN2C(=O)[C@H](C)N(C)C1=O [Compound 2111] ([NMeL]I[NMeA][Aze][NMeCha][Sar][hPhe(3-Cl-4-CF3)][NMeE](NHMe)[Ac5c][NMeGly(cPent)][NMeD]-Morpholide; lactam N-11)	8.2
CC[C@H](C)[C@@H]1NC(=O)[C@H](C)N(C)C(=O)C[C@@H](C)N(C)C(=O)[C@H]([C@@H](C)CC)N(C)C(=O)C(C)(C)N(C)C(=O)[C@@H]2CCCN2C(=O)[C@H](CCc2ccc(C(F)(F)F)c(Cl)c2)NC(=O)CN(C)C(=O)[C@H](CC2CCCCC2)N(C)C(=O)[C@@H]2CCN2C(=O)[C@H](C)N(C)C1=O [Compound 2153] (cyclo([Aze][NMeCha][Sar][hPhe(3-Cl-4-CF3)]P[NMeAib][NMeI][NMedβ3hAla][NMeA]I[NMeA]))	6.9
CC[C@H](C)[C@@H]1NC(=O)[C@H](C)N(C)C(=O)C[C@@H](C)N(C)C(=O)[C@H](CC)N(C)C(=O)C(C)(C)N(C)C(=O)[C@@H]2CCCN2C(=O)[C@H](CCc2ccc(C(F)(F)F)c(Cl)c2)NC(=O)CN(C)C(=O)[C@H](CC2CCCCC2)N(C)C(=O)[C@@H]2CCN2C(=O)[C@H](C)N(C)C1=O [Compound 2154] (cyclo([Aze][NMeCha][Sar][hPhe(3-Cl-4-CF3)]P[NMeAib][NMeAbu][NMedβ3hAla][NMeA]I[NMeA]))	33
CC[C@H](C)[C@@H]1NC(=O)[C@H](C)N(C)C(=O)C[C@@H](C)N(C)C(=O)[C@H](C2CCCC2)N(C)C(=O)C(C)(C)N(C)C(=O)[C@@H]2CCCN2C(=O)[C@H](CCc2ccc(C(F)(F)F)c(Cl)c2)NC(=O)CN(C)C(=O)[C@H](CC2CCCCC2)N(C)C(=O)[C@@H]2CCN2C(=O)[C@H](C)N(C)C1=O [Compound 2156] (cyclo([Aze][NMeCha][Sar][hPhe(3-Cl-4-CF3)]P[NMeAib][NMeGly(cPent)][NMedβ3hAla][NMeA]I[NMeA]))	4.5
CC[C@H](C)[C@@H]1NC(=O)[C@H](C)N(C)C(=O)C[C@@H](C)N(C)C(=O)[C@H](CC2CCCC2)N(C)C(=O)C(C)(C)N(C)C(=O)[C@@H]2CCCN2C(=O)[C@H](CCc2ccc(C(F)(F)F)c(Cl)c2)NC(=O)CN(C)C(=O)[C@H](CC2CCCCC2)N(C)C(=O)[C@@H]2CCN2C(=O)[C@H](C)N(C)C1=O [Compound 2158] (cyclo([Aze][NMeCha][Sar][hPhe(3-Cl-4-CF3)]P[NMeAib][NMeAla(cPent)][NMedβ3hAla][NMeA]I[NMeA]))	89
CC[C@H](C)[C@@H]1NC(=O)[C@H](C)N(C)C(=O)C[C@@H](C)N(C)C(=O)[C@H](CC(C)C)N(C)C(=O)C(C)(C)N(C)C(=O)[C@@H]2CCCN2C(=O)[C@H](CCc2ccc(C(F)(F)F)c(Cl)c2)NC(=O)CN(C)C(=O)[C@H](CC2CCCCC2)N(C)C(=O)[C@@H]2CCN2C(=O)[C@H](C)N(C)C1=O [Compound 2160] (cyclo([Aze][NMeCha][Sar][hPhe(3-Cl-4-CF3)]P[NMeAib][NMeL][NMedβ3hAla][NMeA]I[NMeA]))	3.8
CC[C@H](C)[C@@H]1NC(=O)[C@H](C)N(C)C(=O)C[C@@H](C(=O)N2CCCC2)N(C)C(=O)[C@H](C(C)C)N(C)C(=O)C2(CCCC2)NC(=O)[C@H](Cc2ccccc2Cl)N(CC)C(=O)[C@H](CCc2ccc(C(F)(F)F)c(Cl)c2)NC(=O)CN(C)C(=O)[C@H](CC2CCCCC2)N(C)C(=O)CN(C)C(=O)CN(C)C1=O [Compound 2162] ([NMeA]I[Sar][Sar][NMeCha][Sar][hPhe(3-Cl-4-CF3)][NEtPhe(2-Cl)][Ac5c][NMeV][NMeD]-Pyrrolidide; lactam N-11)	200
CC[C@H](C)[C@@H]1NC(=O)[C@H](CC(C)C)N(C)C(=O)C[C@@H](C(=O)N2CCCCC2)N(C)C(=O)[C@H](C2CCCCC2)N(C)C(=O)C2(CCCC2)NC(=O)[C@H](Cc2ccc(O)c(F)c2)N(C)C(=O)[C@H](CCc2ccc(C(F)(F)F)c(Cl)c2)NC(=O)CN(C)C(=O)[C@H](CC2CCCCC2)N(C)C(=O)CN(C)C(=O)CN(C)C1=O [Compound 2170] ([NMeL]I[Sar][Sar][NMeCha][Sar][hPhe(3-Cl-4-CF3)][NMeTyr(3-F)][Ac5c][NMeChg][NMeD]-Piperidide; lactam N-11)	69

— US12371454B2, “Cyclic peptide compound having Kras inhibitory action” (priority 2019, dated 2025)
